Publication PMC11191687

Key:
[1] = as series A (acyl azide from hydrazide, biphasic EtOAc/buffer), isolated after prep HPLC; conditions: aq phosphate buffer (6 M GdmCl) / EtOAc biphasic, 3.0 mM, 0.25 h, 2 steps
[2] = head-to-tail lactamisation of unprotected peptide acyl azide (from C-terminal hydrazide, 20 equiv NaNO2, pH 3, -15 C, then NaHCO3 to pH ~7), biphasic EtOAc/buffer; conditions: aq phosphate buffer (6 M GdmCl, 50 mM NaH2PO4, 1.5 mM EDTA) / EtOAc biphasic, 3.0 mM, 2 steps
[3] = lactamisation (head-to-tail or side-chain-to-tail) of unprotected peptide acyl azide (from hydrazide, 20 equiv NaNO2, pH 3, -15 C, then NaHCO3 to pH ~7), MeCN cosolvent; conditions: aq phosphate buffer (6 M GdmCl) diluted with 2 vol 50% MeCN/water, 2.2 mM, 2 steps

With `C=CC[C@@H]1NC(=O)[C@H](CC(C)C)NC(=O)[C@H](CC(C)C)N(C)C(=O)[C@H](CO)NC(=O)[C@H](Cc2ccc(O)c([N+](=O)[O-])c2)NC(=O)[C@H](CC(C)C)N(C)C(=O)[C@H](Cc2c[nH]c3ccccc23)NC1=O` [H-Trp-N-Me-Leu-Tyr(3-NO2)-Ser-N-Me-Leu-Leu-allylGly-N3] the ring closure, yield over several steps ([1]; from C=CC[C@H](NC(=O)[C@H](CC(C)C)NC(=O)[C@H](CC(C)C)N(C)C(=O)[C@H](CO)NC(=O)[C@H](Cc1ccc(O)c([N+](=O)[O-])c1)NC(=O)[C@H](CC(C)C)N(C)C(=O)[C@@H](N)Cc1c[nH]c2ccccc12)C(=O)N=[N+]=[N-], 21-membered ring) was 42% and the ring closure, conversion by HPLC ([2]; from C=CC[C@H](NC(=O)[C@H](CC(C)C)NC(=O)[C@H](CC(C)C)N(C)C(=O)[C@H](CO)NC(=O)[C@H](Cc1ccc(O)c([N+](=O)[O-])c1)NC(=O)[C@H](CC(C)C)N(C)C(=O)[C@@H](N)Cc1c[nH]c2ccccc12)C(=O)N=[N+]=[N-], 21-membered ring, 0.25 h) was 84%.
`CC(C)C[C@@H]1NC(=O)[C@H](CC(C)C)N(C)C(=O)[C@H](C)NC(=O)[C@H](Cc2ccc(O)c([N+](=O)[O-])c2)NC(=O)[C@H](CC(C)C)N(C)C(=O)[C@H](C)NC(=O)[C@H](Cc2ccccc2)NC1=O` [H-Ala-N-Me-Leu-Tyr(3-NO2)-Ala-N-Me-Leu-Leu-Phe-N3] showed a ring closure, yield over several steps ([1]; from CC(C)C[C@H](NC(=O)[C@H](CC(C)C)N(C)C(=O)[C@H](C)NC(=O)[C@H](Cc1ccc(O)c([N+](=O)[O-])c1)NC(=O)[C@H](CC(C)C)N(C)C(=O)[C@H](C)N)C(=O)N[C@@H](Cc1ccccc1)C(=O)N=[N+]=[N-], 21-membered ring) of 40% and a ring closure, conversion by HPLC ([2]; from CC(C)C[C@H](NC(=O)[C@H](CC(C)C)N(C)C(=O)[C@H](C)NC(=O)[C@H](Cc1ccc(O)c([N+](=O)[O-])c1)NC(=O)[C@H](CC(C)C)N(C)C(=O)[C@H](C)N)C(=O)N[C@@H](Cc1ccccc1)C(=O)N=[N+]=[N-], 21-membered ring, 0.25 h) of 88%.
In the case of `C=CC[C@@H]1NC(=O)[C@H](CC(C)C)NC(=O)[C@H](CC(C)C)N(C)C(=O)[C@H](C)NC(=O)[C@H](Cc2ccc(O)c([N+](=O)[O-])c2)NC(=O)[C@H](CC(C)C)N(C)C(=O)[C@H](Cc2cn(C)c3ccccc23)NC1=O` [H-Trp(1-Me)-N-Me-Leu-Tyr(3-NO2)-Ala-N-Me-Leu-Leu-allylGly-N3], the ring closure, yield over several steps ([1]; from C=CC[C@H](NC(=O)[C@H](CC(C)C)NC(=O)[C@H](CC(C)C)N(C)C(=O)[C@H](C)NC(=O)[C@H](Cc1ccc(O)c([N+](=O)[O-])c1)NC(=O)[C@H](CC(C)C)N(C)C(=O)[C@@H](N)Cc1cn(C)c2ccccc12)C(=O)N=[N+]=[N-], 21-membered ring) is reported as 58% and the ring closure, conversion by HPLC ([2]; from C=CC[C@H](NC(=O)[C@H](CC(C)C)NC(=O)[C@H](CC(C)C)N(C)C(=O)[C@H](C)NC(=O)[C@H](Cc1ccc(O)c([N+](=O)[O-])c1)NC(=O)[C@H](CC(C)C)N(C)C(=O)[C@@H](N)Cc1cn(C)c2ccccc12)C(=O)N=[N+]=[N-], 21-membered ring, 0.25 h) is reported as 93%.
With `CC[C@@H]1NC(=O)[C@H](CC(C)C)N(C)C(=O)[C@H](C(C)C)N(C)C(=O)[C@H](CC(C)C)N(C)C(=O)[C@H](CC(C)C)N(C)C(=O)[C@@H](C)NC(=O)[C@H](C)NC(=O)[C@H](CC(C)C)N(C)C(=O)[C@H](C(C)C)NC(=O)[C@H](CC(C)C)N(C)C(=O)CN(C)C1=O` the ring closure, yield over several steps ([1]; from CC[C@H](NC(=O)[C@H](CC(C)C)N(C)C(=O)[C@H](C(C)C)N(C)C(=O)[C@H](CC(C)C)N(C)C(=O)[C@H](CC(C)C)N(C)C(=O)[C@@H](C)N)C(=O)N(C)CC(=O)N(C)[C@@H](CC(C)C)C(=O)N[C@H](C(=O)N(C)[C@@H](CC(C)C)C(=O)N[C@@H](C)C(=O)N=[N+]=[N-])C(C)C, 33-membered ring) was 22% and the ring closure, conversion by HPLC ([2]; from CC[C@H](NC(=O)[C@H](CC(C)C)N(C)C(=O)[C@H](C(C)C)N(C)C(=O)[C@H](CC(C)C)N(C)C(=O)[C@H](CC(C)C)N(C)C(=O)[C@@H](C)N)C(=O)N(C)CC(=O)N(C)[C@@H](CC(C)C)C(=O)N[C@H](C(=O)N(C)[C@@H](CC(C)C)C(=O)N[C@@H](C)C(=O)N=[N+]=[N-])C(C)C, 33-membered ring, 0.25 h) was 61%.
`C=CC[C@@H]1NC(=O)[C@H](CC(C)C)NC(=O)[C@H](CC(C)C)N(C)C(=O)[C@H](C)NC(=O)[C@H](Cc2ccc(O)c([N+](=O)[O-])c2)NC(=O)[C@H](CC(C)C)N(C)C(=O)[C@@H](Cc2cn(C)c3ccccc23)NC1=O` showed a ring closure, conversion by HPLC ([2]; from C=CC[C@H](NC(=O)[C@H](CC(C)C)NC(=O)[C@H](CC(C)C)N(C)C(=O)[C@H](C)NC(=O)[C@H](Cc1ccc(O)c([N+](=O)[O-])c1)NC(=O)[C@H](CC(C)C)N(C)C(=O)[C@H](N)Cc1cn(C)c2ccccc12)C(=O)N=[N+]=[N-], 21-membered ring) of 95%.
For `C=CC[C@@H]1NC(=O)[C@H](CC(C)C)NC(=O)[C@H](CC(C)C)NC(=O)[C@H](C)NC(=O)[C@H](Cc2ccc(O)c([N+](=O)[O-])c2)NC(=O)[C@H](CC(C)C)NC(=O)[C@H](Cc2cn(C(C)(C)C=C)c3ccccc23)NC1=O`, the ring closure, conversion by HPLC ([3]; from C=CC[C@H](NC(=O)[C@H](CC(C)C)NC(=O)[C@H](CC(C)C)NC(=O)[C@H](C)NC(=O)[C@H](Cc1ccc(O)c([N+](=O)[O-])c1)NC(=O)[C@H](CC(C)C)NC(=O)[C@@H](N)Cc1cn(C(C)(C)C=C)c2ccccc12)C(=O)N=[N+]=[N-], 21-membered ring) was 0%.
For `C=CC[C@@H]1NC(=O)[C@H](CC(C)C)NC(=O)[C@H](CC(C)C)N(C)C(=O)[C@H](C)NC(=O)[C@H](Cc2ccc(O)c([N+](=O)[O-])c2)NC(=O)[C@H](CC(C)C)NC(=O)[C@H](Cc2cn(C(C)(C)C=C)c3ccccc23)NC1=O`, the ring closure, conversion by HPLC ([3]; from C=CC[C@H](NC(=O)[C@H](CC(C)C)NC(=O)[C@H](CC(C)C)N(C)C(=O)[C@H](C)NC(=O)[C@H](Cc1ccc(O)c([N+](=O)[O-])c1)NC(=O)[C@H](CC(C)C)NC(=O)[C@@H](N)Cc1cn(C(C)(C)C=C)c2ccccc12)C(=O)N=[N+]=[N-], 21-membered ring, 0.27 h) was less than 50%.
Molecule `CC(C)C[C@@H]1NC(=O)[C@H](Cc2ccc(O)cc2)NC(=O)[C@@H]2CCCN2C(=O)CNC(=O)[C@H](C)NC1=O` [H-Gly-Pro-Tyr-Leu-Ala-N3] has a ring closure, conversion by HPLC ([3]; from CC(C)C[C@H](NC(=O)[C@H](Cc1ccc(O)cc1)NC(=O)[C@@H]1CCCN1C(=O)CN)C(=O)N[C@@H](C)C(=O)N=[N+]=[N-], 15-membered ring, 0.35 h) of 77%.
`CC(C)C[C@H]1C(=O)N[C@@H](C)C(=O)N[C@@H](C)C(=O)N(C)[C@@H](CC(C)C)C(=O)N[C@@H](C)C(=O)NCC(=O)N[C@@H](C)C(=O)N1C` [H-Ala-N-Me-Leu-Ala-Ala-N-Me-Leu-Ala-Gly-N3] showed a ring closure, conversion by HPLC ([3]; from CC(C)C[C@@H](C(=O)N[C@@H](C)C(=O)N[C@@H](C)C(=O)N(C)[C@@H](CC(C)C)C(=O)N[C@@H](C)C(=O)NCC(=O)N=[N+]=[N-])N(C)C(=O)[C@H](C)N, 21-membered ring, 0.35 h) of 90%.
Molecule `CC[C@H](C)[C@@H]1NC(=O)CNC(=O)[C@H](CO)NC(=O)[C@@H]2CCCN2C(=O)[C@H](C(C)C)NC(=O)[C@@H]2CCCN2C(=O)CNC(=O)[C@H](Cc2ccccc2)NC1=O` [H-Pro-Val-Pro-Ser-Gly-Ile-Phe-Gly-N3] has a ring closure, conversion by HPLC ([3]; from CC[C@H](C)[C@H](NC(=O)CNC(=O)[C@H](CO)NC(=O)[C@@H]1CCCN1C(=O)[C@@H](NC(=O)[C@@H]1CCCN1)C(C)C)C(=O)N[C@@H](Cc1ccccc1)C(=O)NCC(=O)N=[N+]=[N-], 24-membered ring, 1.67 h) of 58%.
`C=CC[C@@H]1NC(=O)[C@H](CC(C)C)NC(=O)[C@H](CC(C)C)N(C)C(=O)[C@H](C)NC(=O)[C@H](Cc2ccc(O)c([N+](=O)[O-])c2)NC(=O)[C@H](CC(C)C)N(C)C(=O)[C@H](Cc2cn(C(C)(C)C=C)c3ccccc23)NC1=O` showed a ring closure, yield over several steps ([1]; from C=CC[C@H](NC(=O)[C@H](CC(C)C)NC(=O)[C@H](CC(C)C)N(C)C(=O)[C@H](C)NC(=O)[C@H](Cc1ccc(O)c([N+](=O)[O-])c1)NC(=O)[C@H](CC(C)C)N(C)C(=O)[C@@H](N)Cc1cn(C(C)(C)C=C)c2ccccc12)C(=O)N=[N+]=[N-], 21-membered ring) of 56% and a ring closure, conversion by HPLC ([3]; from C=CC[C@H](NC(=O)[C@H](CC(C)C)NC(=O)[C@H](CC(C)C)N(C)C(=O)[C@H](C)NC(=O)[C@H](Cc1ccc(O)c([N+](=O)[O-])c1)NC(=O)[C@H](CC(C)C)N(C)C(=O)[C@@H](N)Cc1cn(C(C)(C)C=C)c2ccccc12)C(=O)N=[N+]=[N-], 21-membered ring, 0.27 h) of 90%.
